Active and inactive are the calls of the source.
Columns and labels:
[1] = NIH-3T3 fibroblast cytotoxicity, dose response, cytotoxicity control, cell-based, fluorescence, Alamar Blue, secondary assay (AID 2327); type: functional;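 also: NIH-3T3 mouse fibroblasts cultured with fluconazole at 8 µg/mL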
[2] = fluconazole-exposed Candida albicans growth modulators – fluorescence, retest, confirmation (AID 2467); type: functional, cell-based
[3] = molecular target: Protein Wnt-3a (Mus musculus, UniProt P27467); assay: antagonism of Wnt3a pathway luciferase reporter – Wnt-LIGHT cells, luminescence, selectivity assay for Gli-SUFU antagonist project, dose response (AID 651570); type: functional; settings: read-out: IC50_Mean;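 also: Wnt-LIGHT reporter cells stimulated with conditioned medium from Wnt3a-producing cells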
[4] = molecular target: T1, COUP transcription factor 2 (Homo sapiens, UniProt P24468); assay: Luminescence-based cell-based high throughput dose response assay to identify inhibitors of COUP-TFII (NR2F2).; type: functional;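 also: HEK293 cells transiently cotransfected with COUP-TFII expression vector and reporter; luciferase reporter luminescence driven by COUP-TFII from the pX2-168 reporter plasmid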
T1 sequence (P24468 whole entry): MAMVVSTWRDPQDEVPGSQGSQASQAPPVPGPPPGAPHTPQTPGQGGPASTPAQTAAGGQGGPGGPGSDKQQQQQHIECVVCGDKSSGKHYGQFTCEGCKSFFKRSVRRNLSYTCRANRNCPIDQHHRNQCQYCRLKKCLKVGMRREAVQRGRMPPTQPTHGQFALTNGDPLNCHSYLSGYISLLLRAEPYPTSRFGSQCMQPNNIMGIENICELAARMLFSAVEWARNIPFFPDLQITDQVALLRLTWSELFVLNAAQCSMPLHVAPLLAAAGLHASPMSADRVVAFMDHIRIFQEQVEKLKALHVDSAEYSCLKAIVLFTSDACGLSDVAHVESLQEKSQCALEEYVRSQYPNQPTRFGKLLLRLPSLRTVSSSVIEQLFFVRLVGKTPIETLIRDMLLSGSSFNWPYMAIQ

[5] = molecular target: Nuclear receptor subfamily 5 group A member 2 (Homo sapiens, UniProt O00482); type: functional, cell-based;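 also: HEK293T cells transfected with LRH-1 and a StAR promoter luciferase reporter; potency for inhibitors that lower LRH-1 driven reporter light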
[6] = molecular target: Steroidogenic factor 1 (Homo sapiens, UniProt Q13285); assay: Counterscreen for inverse agonists of the liver receptor homolog-1 (LRH-1; NR5A2): Luminescence-based cell-based high throughput dose response assay to identify inverse agonists of the Steroidogenic Factor 1 Nuclear Receptor (SF1; NR5A1).; type: functional
[7] = nonselective StAR promoter luciferase inhibitors – cell-based, luminescence, luciferase reporter, counter-screen for LRH-1 inverse agonist project, dose response (AID 651969); type: functional
[8] = inhibition of ARNT PAS-B/TACC3 complex formation – biochemical, AlphaScreen, cherry-picked samples, confirmation (AID 651703); type: functional, Homo sapiens;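 also: His-tagged ARNT PAS-B domain paired with GST-TACC3 E629A dimer coactivator fragment; potency of inhibitors that break up the complex and lower AlphaScreen signal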
[9] = molecular target: Benomyl/methotrexate resistance protein (Candida albicans, UniProt P28873); assay: Candida albicans Mdr1 pump inhibition curves – singleplex, Cherry Pick1 hits, dose response (AID 588608); type: functional
Sequence of Benomyl/methotrexate resistance protein (P28873 whole entry): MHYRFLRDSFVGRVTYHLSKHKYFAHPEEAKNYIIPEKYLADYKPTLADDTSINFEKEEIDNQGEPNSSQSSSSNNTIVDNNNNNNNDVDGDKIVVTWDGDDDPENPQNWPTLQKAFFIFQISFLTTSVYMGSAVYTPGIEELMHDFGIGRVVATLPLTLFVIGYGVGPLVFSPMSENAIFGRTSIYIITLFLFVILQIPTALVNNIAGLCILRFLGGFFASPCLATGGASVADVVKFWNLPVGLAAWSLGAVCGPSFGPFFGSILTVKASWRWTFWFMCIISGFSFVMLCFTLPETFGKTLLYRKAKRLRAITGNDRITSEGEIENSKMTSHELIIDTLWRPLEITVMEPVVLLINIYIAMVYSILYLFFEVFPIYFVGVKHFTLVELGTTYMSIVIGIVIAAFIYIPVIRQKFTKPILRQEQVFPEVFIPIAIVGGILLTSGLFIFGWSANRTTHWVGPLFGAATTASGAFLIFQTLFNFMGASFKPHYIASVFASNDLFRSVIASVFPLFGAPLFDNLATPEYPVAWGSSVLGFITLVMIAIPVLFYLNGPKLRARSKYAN

[10] = molecular target: Voltage-dependent T-type calcium channel subunit alpha-1H (Homo sapiens, UniProt O95180); type: functional;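 also: channel activity triggered by adding a high calcium stimulation buffer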
Sequence of Voltage-dependent T-type calcium channel subunit alpha-1H (O95180 whole entry): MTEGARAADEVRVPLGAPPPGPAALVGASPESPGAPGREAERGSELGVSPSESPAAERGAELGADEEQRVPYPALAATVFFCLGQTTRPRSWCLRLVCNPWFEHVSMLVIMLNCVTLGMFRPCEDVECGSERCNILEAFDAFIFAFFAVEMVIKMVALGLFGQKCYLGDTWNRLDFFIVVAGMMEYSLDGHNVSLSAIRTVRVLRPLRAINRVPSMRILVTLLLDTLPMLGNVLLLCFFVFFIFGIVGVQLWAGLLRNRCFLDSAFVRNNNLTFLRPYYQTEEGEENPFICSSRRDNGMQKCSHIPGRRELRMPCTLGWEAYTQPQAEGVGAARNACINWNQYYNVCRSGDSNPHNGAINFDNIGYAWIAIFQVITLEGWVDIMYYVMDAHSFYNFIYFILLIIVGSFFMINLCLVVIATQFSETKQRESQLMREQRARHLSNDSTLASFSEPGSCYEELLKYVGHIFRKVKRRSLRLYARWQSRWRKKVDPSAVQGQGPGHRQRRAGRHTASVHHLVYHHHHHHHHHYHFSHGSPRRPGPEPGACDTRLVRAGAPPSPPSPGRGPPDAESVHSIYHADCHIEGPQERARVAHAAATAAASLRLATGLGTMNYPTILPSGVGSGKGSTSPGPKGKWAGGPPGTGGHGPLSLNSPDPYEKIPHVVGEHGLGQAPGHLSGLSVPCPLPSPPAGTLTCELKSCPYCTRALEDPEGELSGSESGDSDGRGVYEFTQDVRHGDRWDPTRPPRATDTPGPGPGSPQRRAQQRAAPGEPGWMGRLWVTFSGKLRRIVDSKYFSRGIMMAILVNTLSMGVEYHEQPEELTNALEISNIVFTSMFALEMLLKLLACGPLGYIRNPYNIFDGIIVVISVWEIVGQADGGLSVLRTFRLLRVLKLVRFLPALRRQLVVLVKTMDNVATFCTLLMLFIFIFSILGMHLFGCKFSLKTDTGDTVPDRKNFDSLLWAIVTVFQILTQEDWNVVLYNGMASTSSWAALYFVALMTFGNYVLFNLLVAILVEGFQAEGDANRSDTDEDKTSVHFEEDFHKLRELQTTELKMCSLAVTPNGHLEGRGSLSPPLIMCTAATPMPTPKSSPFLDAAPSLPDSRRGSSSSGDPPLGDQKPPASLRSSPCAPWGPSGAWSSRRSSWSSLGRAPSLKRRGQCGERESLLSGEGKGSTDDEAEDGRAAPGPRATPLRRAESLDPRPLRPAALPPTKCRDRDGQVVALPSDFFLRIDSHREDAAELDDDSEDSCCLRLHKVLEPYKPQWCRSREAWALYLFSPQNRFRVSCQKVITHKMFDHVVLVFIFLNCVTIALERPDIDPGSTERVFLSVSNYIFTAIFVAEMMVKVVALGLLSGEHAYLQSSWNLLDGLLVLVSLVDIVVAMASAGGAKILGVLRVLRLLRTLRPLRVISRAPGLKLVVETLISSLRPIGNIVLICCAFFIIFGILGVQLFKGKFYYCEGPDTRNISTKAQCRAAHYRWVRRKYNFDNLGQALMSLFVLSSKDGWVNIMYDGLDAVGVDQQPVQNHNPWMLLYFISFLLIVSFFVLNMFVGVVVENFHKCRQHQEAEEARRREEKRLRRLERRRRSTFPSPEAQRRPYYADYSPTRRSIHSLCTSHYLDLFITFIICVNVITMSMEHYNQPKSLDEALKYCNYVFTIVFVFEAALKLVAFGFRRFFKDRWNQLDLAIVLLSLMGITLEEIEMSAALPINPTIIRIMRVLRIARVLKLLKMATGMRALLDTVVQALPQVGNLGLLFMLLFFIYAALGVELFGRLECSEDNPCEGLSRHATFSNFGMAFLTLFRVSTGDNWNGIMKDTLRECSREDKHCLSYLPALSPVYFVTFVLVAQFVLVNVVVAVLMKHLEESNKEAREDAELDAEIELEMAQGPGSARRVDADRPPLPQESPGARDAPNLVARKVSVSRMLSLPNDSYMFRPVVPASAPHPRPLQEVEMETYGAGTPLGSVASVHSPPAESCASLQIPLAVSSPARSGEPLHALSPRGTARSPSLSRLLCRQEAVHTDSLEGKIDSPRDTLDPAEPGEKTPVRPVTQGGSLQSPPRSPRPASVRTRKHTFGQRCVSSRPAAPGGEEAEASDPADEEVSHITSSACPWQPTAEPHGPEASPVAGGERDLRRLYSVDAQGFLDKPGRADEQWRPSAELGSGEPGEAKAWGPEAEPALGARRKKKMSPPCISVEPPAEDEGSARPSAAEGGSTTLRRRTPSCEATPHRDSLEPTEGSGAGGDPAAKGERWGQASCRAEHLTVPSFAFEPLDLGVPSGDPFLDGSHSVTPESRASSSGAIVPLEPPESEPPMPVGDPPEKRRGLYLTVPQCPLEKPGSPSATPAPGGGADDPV

[11] = molecular target: Potassium voltage-gated channel subfamily KQT member 2 (Rattus norvegicus, UniProt O88943); assay: blockers of KCNQ2 channel current – cell-based, automated electrophysiology, set II, rat KCNQ2, dose response (AID 588637); type: functional
[12] = molecular target: T2, High affinity choline transporter 1 (Homo sapiens, UniProt Q9GZV3); assay: human choline transporter potentiators, potency – cell-based, 10-point CRC, membrane potential dye, dose response (AID 602376); type: functional
T2 sequence (Q9GZV3 whole entry): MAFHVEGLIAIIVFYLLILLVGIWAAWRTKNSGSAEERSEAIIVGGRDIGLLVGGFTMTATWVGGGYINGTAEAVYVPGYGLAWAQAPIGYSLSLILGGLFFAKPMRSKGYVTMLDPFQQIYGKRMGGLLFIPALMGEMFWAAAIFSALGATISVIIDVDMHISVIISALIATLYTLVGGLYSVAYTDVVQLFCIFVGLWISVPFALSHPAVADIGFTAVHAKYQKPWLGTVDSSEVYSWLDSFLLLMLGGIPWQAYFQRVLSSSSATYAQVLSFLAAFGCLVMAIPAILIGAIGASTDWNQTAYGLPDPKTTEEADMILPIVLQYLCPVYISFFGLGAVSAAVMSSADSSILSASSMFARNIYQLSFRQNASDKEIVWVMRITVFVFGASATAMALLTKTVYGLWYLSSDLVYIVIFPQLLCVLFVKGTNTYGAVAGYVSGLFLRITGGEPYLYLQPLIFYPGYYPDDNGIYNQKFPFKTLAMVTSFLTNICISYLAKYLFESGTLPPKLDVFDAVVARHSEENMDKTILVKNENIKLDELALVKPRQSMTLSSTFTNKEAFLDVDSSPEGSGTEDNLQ

[13] = molecular target: Mu-type opioid receptor (Homo sapiens, UniProt P35372); type: functional, cell-based;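 also: U2OS cells with beta-arrestin recruitment to OPRM1 by beta-gal complementation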
[14] = molecular target: 5-hydroxytryptamine receptor 2A (Mus musculus, UniProt P35363); type: functional, cell-based;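 also: CHO-K1 cells with tagged receptor and beta-arrestin; agonist potency measured as compound-induced activation of the receptor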
[15] = viability of PTEN-deleted HCT116 cells – cell-based, HCT116 PTEN knockout, dose response (AID 1047); type: functional;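 also: HCT116 colon tumor cells with PTEN knocked out; cells exposed to compound for 60 hours before readout; potency for loss of cell viability measured by luminescence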
[16] = viability of HCT116 lacking mutant beta-catenin – cell-based, human colon tumor, dose response (AID 1045); type: functional;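 also: HCT116 colon tumor cells with beta catenin knocked out; cells exposed to compound for 60 hours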
[17] = molecular target: G-protein coupled receptor 55 (Homo sapiens, UniProt Q9Y2T6); assay: selective activators of receptor GPR55 – imaging, U2OS cells, beta-arrestin-GFP redistribution, primary screen (AID 1961); type: functional
Sequence of G-protein coupled receptor 55 (Q9Y2T6 whole entry): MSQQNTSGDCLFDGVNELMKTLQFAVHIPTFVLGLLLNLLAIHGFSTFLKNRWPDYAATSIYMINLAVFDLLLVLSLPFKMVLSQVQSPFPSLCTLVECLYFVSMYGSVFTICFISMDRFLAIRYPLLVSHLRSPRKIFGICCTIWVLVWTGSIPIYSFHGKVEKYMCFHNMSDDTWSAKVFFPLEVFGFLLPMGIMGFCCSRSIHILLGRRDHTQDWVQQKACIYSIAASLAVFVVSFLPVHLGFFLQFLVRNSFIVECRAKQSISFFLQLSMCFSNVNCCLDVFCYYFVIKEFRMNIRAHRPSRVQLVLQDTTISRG

[18] = tested on: Vero; assay: cells; type: functional; settings: Chlorocebus sabaeus
[19] = Fluorescence-based cell-based high throughput dose response assay for inhibitors of the interaction of nucleotide-binding oligomerization domain containing 2 (NOD2) and the receptor-interacting serine-threonine kinase 2 (RIPK2).; type: functional; settings: Homo sapiens
[20] = molecular target: Beta Lactamase (Pseudomonas aeruginosa, UniProt Q932Y6); assay: BLA reporter interference, concentration series – BLA reporter cells, FRET fluorescence, artefact control for NOD2-RIPK2 interaction inhibitor project, dose response (AID 651552); type: functional, cell-based
Sequence of Beta Lactamase (Q932Y6 whole entry, the tested form may be a part): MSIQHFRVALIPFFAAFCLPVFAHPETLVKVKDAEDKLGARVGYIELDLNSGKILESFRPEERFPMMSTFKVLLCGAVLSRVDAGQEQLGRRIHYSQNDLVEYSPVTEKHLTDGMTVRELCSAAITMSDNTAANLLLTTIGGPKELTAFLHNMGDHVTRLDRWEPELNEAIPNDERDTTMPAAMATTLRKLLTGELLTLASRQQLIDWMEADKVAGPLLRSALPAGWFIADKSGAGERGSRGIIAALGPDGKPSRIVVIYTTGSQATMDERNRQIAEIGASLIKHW

[21] = molecular target: T3, Carboxy-terminal domain RNA polymerase II polypeptide A small phosphatase 1 (Homo sapiens, UniProt Q9GZU7); assay: CTDSP1 inhibitors, concentration-response, biochemical, absorbance readout, ultra-high-throughput screen actives (AID 540297); type: functional
T3 sequence (Q9GZU7 whole entry): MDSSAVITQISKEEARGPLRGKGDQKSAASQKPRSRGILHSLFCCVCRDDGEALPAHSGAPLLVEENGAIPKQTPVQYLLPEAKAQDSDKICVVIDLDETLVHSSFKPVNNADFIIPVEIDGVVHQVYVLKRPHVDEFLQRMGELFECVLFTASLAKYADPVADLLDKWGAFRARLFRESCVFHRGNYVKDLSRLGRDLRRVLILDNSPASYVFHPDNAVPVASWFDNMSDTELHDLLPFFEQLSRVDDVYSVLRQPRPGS

[22] = molecular target: T4, Low molecular weight phosphotyrosine protein phosphatase (Homo sapiens, UniProt P24666); type: functional; settings: read-out: IC50_Mean
T4 sequence (P24666 whole entry): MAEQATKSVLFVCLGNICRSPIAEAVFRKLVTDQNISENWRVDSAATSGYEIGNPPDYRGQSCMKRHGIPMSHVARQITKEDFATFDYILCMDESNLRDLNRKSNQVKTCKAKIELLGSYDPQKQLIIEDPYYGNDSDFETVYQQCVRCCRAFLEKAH

[23] = molecular target: 26S proteasome non-ATPase regulatory subunit 14 (Homo sapiens, UniProt O00487); assay: inhibition of proteasome subunit RPN11 – biochemical, fluorescence polarization, uHTS hits, confirmation (AID 602368); type: functional
Sequence of 26S proteasome non-ATPase regulatory subunit 14 (O00487 whole entry): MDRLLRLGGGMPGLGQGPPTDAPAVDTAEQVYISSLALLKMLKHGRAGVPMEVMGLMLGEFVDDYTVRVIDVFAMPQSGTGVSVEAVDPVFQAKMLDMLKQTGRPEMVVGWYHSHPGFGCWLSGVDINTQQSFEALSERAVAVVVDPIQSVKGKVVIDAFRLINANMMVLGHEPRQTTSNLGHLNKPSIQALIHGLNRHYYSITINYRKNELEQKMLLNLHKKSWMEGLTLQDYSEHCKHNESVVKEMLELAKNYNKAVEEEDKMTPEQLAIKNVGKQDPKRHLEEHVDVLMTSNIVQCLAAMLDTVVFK

[24] = molecular target: 72 kDa type IV collagenase (Homo sapiens, UniProt P08253); assay: Dose Response validation of uHTS RPN11 inhibitor hits using a MMP-2 Fluorescence assay.; type: functional
[25] = molecular target: Prothrombin (Bos taurus, UniProt P00735); assay: thrombin protease inhibitors – biochemical, fluorescence polarization, uHTS hits, dose response (AID 602369); type: functional
[26] = molecular target: Beta-lactamase (Salmonella choleraesuis (strain SC-B67), UniProt Q5J463); assay: Epi-absorbance-based counterscreen for selective VIM-2 inhibitors: dose response biochemical high throughput screening assay to identify inhibitors of TEM-1 serine-beta-lactamase.
Sequence of Beta-lactamase (Salmonella choleraesuis (strain SC-B67), UniProt Q5J463) (Q5J463 whole entry): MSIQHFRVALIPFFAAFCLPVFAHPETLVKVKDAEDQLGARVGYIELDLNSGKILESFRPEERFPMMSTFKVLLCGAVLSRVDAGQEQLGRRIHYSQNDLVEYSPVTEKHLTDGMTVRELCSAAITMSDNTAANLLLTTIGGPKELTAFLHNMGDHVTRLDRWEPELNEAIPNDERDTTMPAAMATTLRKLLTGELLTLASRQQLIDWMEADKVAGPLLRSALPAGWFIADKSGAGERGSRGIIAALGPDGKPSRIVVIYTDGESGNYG

[27] = molecular target: T5, Beta-lactamase (Pseudomonas aeruginosa, UniProt Q79MP6); assay: inhibition of IMP-1 beta-lactamase activity – biochemical, epi-absorbance, selectivity assay for VIM-2 inhibitor project, dose response (AID 1920)
T5 sequence (Q79MP6 whole entry): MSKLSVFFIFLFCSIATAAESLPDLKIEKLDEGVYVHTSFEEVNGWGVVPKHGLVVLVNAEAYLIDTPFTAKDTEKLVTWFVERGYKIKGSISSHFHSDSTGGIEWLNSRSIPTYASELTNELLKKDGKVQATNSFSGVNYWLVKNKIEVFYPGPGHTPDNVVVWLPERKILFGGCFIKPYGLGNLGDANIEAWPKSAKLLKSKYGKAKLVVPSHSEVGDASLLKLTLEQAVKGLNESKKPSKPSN

[28] = molecular target: T5, Beta-lactamase; assay: […] counterscreen for selective VIM-2 inhibitors: dose response biochemical high throughput screening assay to identify inhibitors of IMP-1 metallo-beta-lactamase.
[29] = molecular target: Mitochondrial peptide methionine sulfoxide reductase (Bos taurus, UniProt P54149); type: functional;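 also: absorbance read-out, biochemical high-throughput dose-response screen for MsrA inhibitors, confirmatory; recombinant bovine MsrA coupled to E. coli TrxB with NADPH and selenocystamine; potency is for inhibitors of MsrA activity on DMSO substrate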
[30] = molecular target: Apoptotic protease-activating factor 1 (Homo sapiens, UniProt O14727); assay: SAR analysis of small molecule Activators of Apaf-1 in a Fluorescent assay.; type: functional; settings: read-out: EC50_Mean;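 also: caspase-3 cleavage of fluorogenic Rh110 DEVD substrate downstream of apoptosome activation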
[31] = molecular target: T4, Low molecular weight phosphotyrosine protein phosphatase; type: functional; settings: read-out: IC50_Mean; remark: listed apart in the source
[32] = molecular target: T6, Caspase-6 (Homo sapiens, UniProt P55212); assay: inhibition of CASP6 peptide cleavage – biochemical, VEID-R110 fluorescence, cherry-pick, dose response (AID 720632)
T6 sequence (P55212 whole entry): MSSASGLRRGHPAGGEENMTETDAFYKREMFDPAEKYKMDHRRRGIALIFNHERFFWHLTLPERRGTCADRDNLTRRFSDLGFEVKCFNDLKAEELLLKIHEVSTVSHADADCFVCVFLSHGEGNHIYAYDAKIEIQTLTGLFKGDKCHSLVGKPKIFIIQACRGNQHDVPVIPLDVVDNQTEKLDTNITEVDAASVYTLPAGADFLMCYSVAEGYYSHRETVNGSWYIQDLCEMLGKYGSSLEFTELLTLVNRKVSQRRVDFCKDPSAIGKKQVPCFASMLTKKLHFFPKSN

[33] = molecular target: Caspase-7 (Homo sapiens, UniProt P55210); assay: caspase-7 enzyme inhibition, selectivity check – biochemical, DEVD-R110 fluorescence, cherry-pick, selectivity assay for caspase-6 inhibitor project, dose response (AID 743295); type: functional
Sequence of Caspase-7 (P55210 24-198 limits assumed): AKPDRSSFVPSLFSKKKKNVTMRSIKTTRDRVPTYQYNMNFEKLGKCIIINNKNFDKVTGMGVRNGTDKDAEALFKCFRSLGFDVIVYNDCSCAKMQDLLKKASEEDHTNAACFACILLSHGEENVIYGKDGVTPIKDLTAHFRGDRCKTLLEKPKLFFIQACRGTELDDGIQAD
Sequence of Caspase-7 (P55210 207-303 limits assumed): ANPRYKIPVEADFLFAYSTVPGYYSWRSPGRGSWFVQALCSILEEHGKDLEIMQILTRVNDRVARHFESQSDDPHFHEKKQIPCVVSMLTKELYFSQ

[34] = molecular target: T7, Leucine aminopeptidase (Plasmodium falciparum 3D7, UniProt Q8IL11); assay: P. falciparum M17LAP inhibitors, primary screen, biochemical, fluorogenic H-Leu-NHMec substrate, 1536-well (AID 1619); type: functional
T7 sequence (Q8IL11 whole entry): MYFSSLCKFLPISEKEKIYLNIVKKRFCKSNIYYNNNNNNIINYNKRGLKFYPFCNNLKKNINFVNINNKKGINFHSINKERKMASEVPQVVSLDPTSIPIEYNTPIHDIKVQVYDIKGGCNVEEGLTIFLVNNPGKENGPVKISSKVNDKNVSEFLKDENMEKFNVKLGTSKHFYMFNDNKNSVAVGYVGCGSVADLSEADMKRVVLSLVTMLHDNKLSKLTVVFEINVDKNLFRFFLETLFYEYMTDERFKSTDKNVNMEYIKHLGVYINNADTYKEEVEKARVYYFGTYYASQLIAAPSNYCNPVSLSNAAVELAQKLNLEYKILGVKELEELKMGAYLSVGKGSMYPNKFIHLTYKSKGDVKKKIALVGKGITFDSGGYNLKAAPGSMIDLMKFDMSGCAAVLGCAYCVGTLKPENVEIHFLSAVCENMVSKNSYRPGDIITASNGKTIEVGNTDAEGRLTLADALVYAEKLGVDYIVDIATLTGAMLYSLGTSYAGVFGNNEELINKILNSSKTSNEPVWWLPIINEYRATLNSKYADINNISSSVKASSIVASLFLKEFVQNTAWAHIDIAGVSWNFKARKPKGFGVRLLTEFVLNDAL

[35] = molecular target: T8, Probable nicotinate-nucleotide adenylyltransferase (Staphylococcus aureus (strain N315), UniProt P65502); type: functional, Staphylococcus aureus subsp. aureus N315;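 as to IC50 Mean: confirmatory dose-response retesting of NadD inhibitor hits first found in an ultra-high-throughput screen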
T8 sequence (P65502 whole entry): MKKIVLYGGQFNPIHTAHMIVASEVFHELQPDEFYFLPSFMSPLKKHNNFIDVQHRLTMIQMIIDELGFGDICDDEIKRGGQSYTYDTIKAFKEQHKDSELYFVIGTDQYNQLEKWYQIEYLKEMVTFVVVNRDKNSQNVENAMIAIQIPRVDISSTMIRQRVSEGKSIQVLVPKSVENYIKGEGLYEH

[36] = molecular target: T8, Probable nicotinate-nucleotide adenylyltransferase; type: functional, Staphylococcus aureus subsp. aureus N315; settings: read-out: IC50_Mean
[37] = cells; type: functional, cell-based

Cc1nn(C)c(C)c1/C=C/C(=O)c1ccc(Cl)cc1Cl
EC50 [1]: 84.9 µM (inconclusive) | EC50 [2]: 3.56 µM (active) | IC50 [3]: 2.49 µM (active) | IC50 [4]: 14.8 µM (inactive)

N=c1sccn1CC(=O)Nc1ccc(S(N)(=O)=O)cc1
IC50 [5]: 2.32 µM (active) | IC50 [6]: 3.81 µM (active) | IC50 [7]: 35.9 µM (inactive)

Cc1cccc(NC(=O)C(C)N2CC=C(c3ccccc3)CC2)c1 (stereo not given)
AC50 [8]: 88.4 µM (active)

COc1ccc(C2CC(c3ccccc3C(F)(F)F)=NN2c2ccc(S(N)(=O)=O)cc2)cc1 (stereo not given)
EC50 [9]: 22.6 µM (active)

COc1ccc(-c2nc(CSCC(=O)NC3CCCc4ccccc43)c(C)o2)cc1 (stereo not given)
EC50 [10]: 3.95 µM (active) | IC50 [11]: 1.76 µM (active)

Fc1ccc(C(c2nnnn2C2CCCC2)N(Cc2ccco2)CC2CCCO2)cc1 (stereo not given)
EC50 [10]: 3.83 µM (active) | EC50 [12]: 14.5 µM (active)

OC(COc1ccc2cc(Br)ccc2c1)CN1CCN(c2ccccn2)CC1 (stereo not given)
EC50 [13]: 92.5 µM (inactive) | EC50 [14]: 903 nM (active)

N#Cc1ccccc1Cn1cc(/C=C/[N+](=O)[O-])c2ccccc21
EC50 [15]: 17.8 µM (active) | EC50 [16]: 18 µM (active) | EC50 [17]: 3.11 µM (active) | CC50 [18]: 8.92 µM (active) | IC50 [19]: 10.3 µM (inactive) | IC50 [20]: 24.4 µM (inactive)

O=C(Nc1nc2ccsc2c(=O)s1)c1ccc(Cl)cc1
IC50 [21]: 5.43 µM (active) | IC50 [22]: 39.3 µM (inactive)

CC1CCN(c2ccc3c(c2)S(=O)(=O)c2cccc(C(=O)NC4CCCCC4)c2C3=O)CC1
IC50 [23]: 14.1 µM (active) | IC50 [24]: > 100 µM (inactive) | IC50 [25]: 26.8 µM (active)

CCc1ccc(Nc2n[n+](-c3ccccc3)c(-c3ccc(SC)cc3)s2)cc1
EC50 [17]: 23.1 µM (inactive) | EC50 [12]: 10.2 µM (active)

O=C(O)c1ccccc1C(=O)c1cccc2ccccc12
IC50 [26]: > 59.6 µM (inactive) | IC50 [27]: > 59.6 µM (inactive) | IC50 [28]: > 59.6 µM (inactive)

O=C(C(=O)c1ccc(O)c(O)c1)c1ccc(O)c(O)c1
IC50 [29]: 112 µM (inactive)

O=C(Nc1cccc(O)c1)C1CC(c2ccc(F)cc2)=NO1 (stereo not given)
EC50 [30]: > 100 µM (inactive)

CCCCNC(=O)c1nc(C2CCNCC2)oc1-c1cccc(C(F)(F)F)c1
IC50 [31]: 39.9 µM (inactive) | AC50 [32]: 1.6 µM (active) | AC50 [33]: > 70 µM (inactive)

CCc1nnc(NS(=O)(=O)c2ccc(/N=C/c3c(C)nn(-c4ccc(C)c(C)c4)c3O)cc2)s1
IC50 [34]: 14.4 µM (active) | IC50 [35]: 4.55 µM (active) | IC50 [36]: 16.5 µM (active) | IC50 [37]: 70 µM (inactive)
